From US9358236B2, “Combinations of therapeutic agents for use in the treatment of neurodegenerative diseases” (Novartis AG, priority 2011, dated 2016)
Entries after “also recorded” stand apart in the source; their conditions may differ.

What was measured:
p-S6 S240/244 = experiment: mTORC1 activity (p-S6 S240/244) by Western blot in R6/2 brain slices; format: cell-based, mouse; conditions: R6/2 slices treated DIV14 to DIV21, analysed at DIV21
LC3-II/I conversion = experiment: Autophagy induction (LC3-II/I conversion) by Western blot in R6/2 brain slices; format: cell-based; conditions: R6/2 slices treated DIV14 to DIV21, analysed at DIV21
Procedure: (§1) Transgenic mice expressing human Huntingtin Exon-1Q200 (R6/2 mouse model described in Davies et al., 1997) were housed in a temperature-controlled room and maintained on a 12 hr light/dark cycle. Food and water were available ad libitum and experiments were carried out in accordance with the local authorization guidelines for the care and use of laboratory animals. Slice cultures were established according to the procedure described by Stoppini and colleagues (Stoppini et al., 1991 and Gogolla et al., 2006) and a particular cutting angle was utilized to produce brain slices with a preserved cortico-striatal pathway. Finally, slices were selected, placed on Millicel (Millipore, PICM03050) and cultured in 6-well dishes at 35° C. and 5% CO2 in the presence of 1 ml of culture medium.
Slices were treated with different mTOR inhibitors from DIV14 to DIV21. The culture medium was exchanged every second day, and drugs were added in the fresh culture medium. We used this protocol to evaluate the action of the following mTOR inhibitors: BEZ235 (50 and 300 nM in DMSO), RAD001 (250 nM in DMSO), CCG168 (300 nM in DMSO), RAD001+BEZ235 (250 10, 250 30 and 250 50 nM in DMSO) and RAD001'CCG168 (250 and 50 nM in DMSO).
Slices were washed in PBS and lysed in 1% Triton X-100/PBS containing Complete Mini (Roche, #04693124001) and PhosSTOP (Roche, #04906837001). Lysates were ultrasonicated and analysed by Western blotting for B-actin (Sigma, #A5441), pS6 Ser 240/244 (Cell Signalling, #2215), and LC3B (Cell Signalling, #2775). Immunoblots were developed with ECL detection reagent (Amersham Biosciences).

polyQ inclusions = experiment: polyQ density by immunohistochemistry in R6/2 brain slices; format: cell-based, mouse; conditions: R6/2 slices at DIV21, vs control R6/2
Procedure: as §1
(§2) Slices were treated with different mTOR inhibitors from DIV14 to DIV21. The culture medium was exchanged every second day, and drugs were added in the fresh culture medium. […]
(§3) High resolution images were acquired on an upright Zeiss LSM700 confocal microscope, using a Plan-Neofluar 40×/1.3 oil immersion objective. For the quantification of the PolyQ density and DARPP-32/NeuF signal intensity, at least three confocal 3D stacks/slice were acquired in striatum for each experiment (five slices per condition), and analyzed using Imaris 4.2 (Bitplane AG) and Image J softwares.
(§4) All data are expressed as mean±SEM. […]

DARPP-32 = experiment: Striatal degeneration: DARPP-32 intensity in R6/2 brain slices; format: cell-based, mouse; conditions: R6/2 slices at DIV21
Procedure: as §1, §2, §3, §4

neurofilament = experiment: Striatal degeneration: neurofilament intensity in R6/2 brain slices; format: cell-based, mouse; conditions: R6/2 slices at DIV21
Procedure: as §1, §2, §3, §4

mTOR = mTOR (Homo sapiens, UniProt P42345); conditions: low concentration; Serra et al., 2008; cited from earlier work
PI3K/mTOR = conditions: relatively higher concentrations; Serra et al., 2008; cited from earlier work
[1] = single low-concentration (250 nM)
[2] = single low-concentration (50 nM)

Compound	p-S6 S240/244 level (p-S6 S240/244; 250 nM)	LC3-II/I conversion (autophagy induction) (LC3-II/I conversion; 250 nM)	polyQ density (polyQ inclusions; 250 nM)	preservation of DARPP-32 level (DARPP-32; [1])	preservation of neurofilament level (neurofilament; [1])	p-S6 S240/244 level (p-S6 S240/244; 50 nM)	LC3-II/I conversion (autophagy induction) (LC3-II/I conversion; 50 nM)	LC3-II/I conversion (autophagy induction) (LC3-II/I conversion; 300 nM)	polyQ density (polyQ inclusions; 50 nM)	preservation of DARPP-32 level (DARPP-32; [2])	preservation of neurofilament level (neurofilament; [2])	concentration at which mTOR inhibition predominates (mTOR)	concentration giving dual PI3K/mTOR inhibition (PI3K/mTOR)
CO[C@H]1C[C@@H]2CC[C@@H](C)[C@@](O)(O2)C(=O)C(=O)N2CCCC[C@H]2C(=O)O[C@H]([C@H](C)C[C@@H]2CC[C@@H](OCCO)[C@H](OC)C2)CC(=O)[C@H](C)/C=C(\C)[C@@H](O)[C@@H](OC)C(=O)[C@H](C)C[C@H](C)/C=C/C=C/C=C/1C [RAD001, (1R,9S,12S,15R,16E,18R,19R,21R,23S,24E,26E,28E,30S,32S,35R)-1,18-dihydroxy-12-{(1R)-2-[(1S,3R,4R)-4-(2-hydroxyethoxy)-3-methoxycyclohexyl]-1-methylethyl}-19,30-dimethoxy-15,17,21,23,29,35-hexamethyl-11,36-dioxa-4-aza-tricyclo[30.3.1.0^4,9]hexatriaconta-16,24,26,28-tetraene-2,3,10,14,20-pentaone]	reduced	no effect	no effect	ineffective	ineffective								
Cn1c(=O)n(-c2ccc(C(C)(C)C#N)cc2)c2c3cc(-c4cnc5ccccc5c4)ccc3ncc21 [BEZ235, 2-methyl-2-[4-(3-methyl-2-oxo-8-quinolin-3-yl-2,3-dihydro-imidazo[4,5-c]quinolin-1-yl)-phenyl]-propionitrile]						did not reduce	no effect	induced autophagy; also recorded: reached similar efficacy	no effect	ineffective	ineffective	less than 100 nmol/L	approximately 500 nmol/L
COc1ccc(-c2ccc3c(N4CCOC[C@@H]4C)nc(N4CCOC[C@@H]4C)nc3n2)cc1CO [CCG168, {5-[2,4-bis-((S)-3-methyl-morpholin-4-yl)-pyrido[2,3d]pyrimidin-7-yl]-2-methoxy-phenyl}-methanol]								induced autophagy; also recorded: reached similar efficacy					
